In publication PMC8550792, “Evolution of kinase polypharmacology across HSP90 drug discovery” (Cell Chemical Biology, 2021):
Read-outs that look alike come from different tables or passages of the source.

Key:
[1] = biological target: ABL1; design: method as in Becher et al., 2013; details: chemoproteomics; ref Becher et al., 2013; read-out: Kd,app (ATP-Mg), ABL1; cited from earlier work
[2] = biological target: ABL2; design: method as in Becher et al., 2013; details: chemoproteomics; ref Becher et al., 2013; read-out: Kd,app (ATP-Mg), ABL2; cited from earlier work
[3] = biological target: DDR1; design: method as in Becher et al., 2013; details: chemoproteomics; ref Becher et al., 2013; read-out: Kd,app (ATP-Mg), DDR1; cited from earlier work
[4] = biological target: T1, ABL2/ARG (Homo sapiens, UniProt P42684); assay: HotSpot in vitro kinase radiometric assay; assay type: biochemical; details: for remaining activity at 10 µM: ATP 30 uM, Data 1, Data 2
T1 construct: purchased Reaction Biology (HotSpot contract assay)

[5] = biological target: T2, BLK (Homo sapiens, UniProt P51451); assay: HotSpot in vitro kinase radiometric assay; assay type: biochemical; details: for remaining activity at 10 µM: ATP 10 uM, Data 1, Data 2
T2 construct: purchased Reaction Biology (HotSpot contract assay)
T2 sequence (P51451 whole entry): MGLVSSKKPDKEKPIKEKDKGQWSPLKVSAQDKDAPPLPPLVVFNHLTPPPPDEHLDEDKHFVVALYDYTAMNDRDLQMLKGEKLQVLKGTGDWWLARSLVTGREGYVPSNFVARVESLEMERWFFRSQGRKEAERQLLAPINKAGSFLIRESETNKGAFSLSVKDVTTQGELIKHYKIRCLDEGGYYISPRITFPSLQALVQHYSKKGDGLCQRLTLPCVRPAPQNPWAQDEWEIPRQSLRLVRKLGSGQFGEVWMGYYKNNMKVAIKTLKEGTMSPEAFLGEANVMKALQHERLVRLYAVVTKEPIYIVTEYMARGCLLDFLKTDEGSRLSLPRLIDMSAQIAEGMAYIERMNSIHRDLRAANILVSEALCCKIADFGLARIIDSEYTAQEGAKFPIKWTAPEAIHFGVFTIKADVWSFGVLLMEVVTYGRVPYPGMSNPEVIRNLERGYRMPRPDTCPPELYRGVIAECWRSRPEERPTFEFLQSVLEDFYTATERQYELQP
Procedure, shortened: (§1)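 Kinase + substrate + cofactors + 32P-ɣ-ATP or 33P-ɣ-ATP incubated with compound; mixture spotted on filter paper; bound radiolabelled product counted. Direct catalytic activity readout.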

[6] = biological target: T3, LYN B (Homo sapiens, UniProt P07948); assay: HotSpot in vitro kinase radiometric assay; assay type: biochemical; details: for remaining activity at 10 µM: ATP 20 uM, Data 1, Data 2
T3 construct: purchased Reaction Biology (HotSpot contract assay)
Procedure, shortened: as §1

[7] = biological target: T4, c-Src (Homo sapiens, UniProt P12931); assay: HotSpot in vitro kinase radiometric assay; assay type: biochemical; details: for remaining activity at 10 µM: ATP 15 uM, Data 1, Data 2
T4 construct: purchased Reaction Biology (HotSpot contract assay)
T4 sequence (P12931 whole entry): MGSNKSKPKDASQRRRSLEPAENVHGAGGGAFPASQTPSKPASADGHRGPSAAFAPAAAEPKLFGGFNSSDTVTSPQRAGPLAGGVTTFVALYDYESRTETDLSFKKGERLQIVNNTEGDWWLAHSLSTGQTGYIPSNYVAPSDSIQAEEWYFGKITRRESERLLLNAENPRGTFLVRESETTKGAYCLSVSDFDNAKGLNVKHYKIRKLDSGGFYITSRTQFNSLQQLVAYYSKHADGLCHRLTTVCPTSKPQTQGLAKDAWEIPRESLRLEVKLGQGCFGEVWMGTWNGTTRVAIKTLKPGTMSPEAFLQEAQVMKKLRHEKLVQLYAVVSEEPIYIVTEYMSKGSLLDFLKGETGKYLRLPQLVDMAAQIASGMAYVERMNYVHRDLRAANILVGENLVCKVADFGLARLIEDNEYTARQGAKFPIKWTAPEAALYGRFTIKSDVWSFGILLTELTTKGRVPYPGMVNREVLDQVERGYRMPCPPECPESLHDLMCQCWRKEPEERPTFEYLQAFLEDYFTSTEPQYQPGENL
Procedure, shortened: as §1

[8] = biological target: T5, PEAK1 (Homo sapiens, UniProt Q9H792); assay: HotSpot in vitro kinase radiometric assay; assay type: biochemical; details: for remaining activity at 10 µM: ATP 30 uM, Data 1, Data 2
T5 construct: purchased Reaction Biology (HotSpot contract assay)

[9] = biological target: T6, FGR (Homo sapiens, UniProt P09769); assay: HotSpot in vitro kinase radiometric assay; assay type: biochemical; details: for remaining activity at 10 µM: ATP 50 uM, Data 1, Data 2
T6 construct: purchased Reaction Biology (HotSpot contract assay)
T6 sequence (P09769 whole entry): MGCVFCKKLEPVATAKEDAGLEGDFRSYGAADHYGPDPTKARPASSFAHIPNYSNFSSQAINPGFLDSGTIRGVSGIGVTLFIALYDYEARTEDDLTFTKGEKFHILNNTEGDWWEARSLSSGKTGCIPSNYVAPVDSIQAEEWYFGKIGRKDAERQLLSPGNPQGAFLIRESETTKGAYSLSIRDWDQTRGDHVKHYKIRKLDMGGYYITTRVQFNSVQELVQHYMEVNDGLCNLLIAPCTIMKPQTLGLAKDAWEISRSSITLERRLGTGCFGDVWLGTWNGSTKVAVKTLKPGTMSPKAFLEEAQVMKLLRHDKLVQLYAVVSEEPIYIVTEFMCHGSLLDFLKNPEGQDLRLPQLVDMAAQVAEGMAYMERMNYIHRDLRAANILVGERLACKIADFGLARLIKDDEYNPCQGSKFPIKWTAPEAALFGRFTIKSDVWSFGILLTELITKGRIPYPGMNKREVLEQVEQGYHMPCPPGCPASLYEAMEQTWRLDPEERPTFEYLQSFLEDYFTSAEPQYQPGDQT

[10] = biological target: T7, FYN (Homo sapiens, UniProt P06241); assay: HotSpot in vitro kinase radiometric assay; assay type: biochemical; details: for remaining activity at 10 µM: ATP 30 uM, Data 1, Data 2
T7 construct: purchased Reaction Biology (HotSpot contract assay)
T7 sequence (P06241 whole entry): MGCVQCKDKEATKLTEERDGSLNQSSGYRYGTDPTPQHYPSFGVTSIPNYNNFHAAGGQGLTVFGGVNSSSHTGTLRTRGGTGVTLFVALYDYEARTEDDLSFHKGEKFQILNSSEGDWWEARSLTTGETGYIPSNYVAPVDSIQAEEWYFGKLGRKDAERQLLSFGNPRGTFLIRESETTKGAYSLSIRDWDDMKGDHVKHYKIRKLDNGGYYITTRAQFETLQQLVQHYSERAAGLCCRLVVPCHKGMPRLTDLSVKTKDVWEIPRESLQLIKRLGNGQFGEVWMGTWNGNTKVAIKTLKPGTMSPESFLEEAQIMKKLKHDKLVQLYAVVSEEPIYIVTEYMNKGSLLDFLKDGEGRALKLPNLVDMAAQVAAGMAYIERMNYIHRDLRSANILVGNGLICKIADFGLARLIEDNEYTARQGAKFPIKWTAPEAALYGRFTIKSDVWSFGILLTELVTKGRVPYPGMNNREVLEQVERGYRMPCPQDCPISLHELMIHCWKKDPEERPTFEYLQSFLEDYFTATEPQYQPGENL

[11] = biological target: T8, PASK (Homo sapiens, UniProt Q96RG2); assay: HotSpot in vitro kinase radiometric assay; assay type: biochemical; details: for remaining activity at 10 µM: ATP 50 uM, Data 1, Data 2
T8 construct: purchased Reaction Biology (HotSpot contract assay)
From the text: (§2) Accordingly, we selected five additional representative HSP90 inhibitors, at least one from each chemical class, including both synthetic inhibitors and natural products.
(§3) Accordingly, we screened the hit compound and the two leads for kinase off-target inhibition using the 16-kinase panel and the same in vitro catalytic assay used previously.
(§4) This radioisotope binding assay was designed to directly detect the true product without the use of modified substrates, coupling enzymes, or detection antibodies thus enabling to directly measure inhibition of catalytic activity. Test or control compounds were incubated with kinase, substrate, cofactors, and radioisotope-labeled ATP (32P-ɣ-ATP or 33P-ɣ-ATP). The reaction mixtures were then spotted onto filter papers, which bind the radioisotope-labeled catalytic product.

[12] = biological target: T9, TRKA (Homo sapiens, UniProt P04629); assay: HotSpot in vitro kinase radiometric assay; assay type: biochemical; details: for remaining activity at 10 µM: ATP 100 uM, Data 1, Data 2
T9 construct: purchased Reaction Biology (HotSpot contract assay)
From the text: as §2, §3, §4

[13] = biological target: T10, TRKC (Homo sapiens, UniProt Q16288); assay: HotSpot in vitro kinase radiometric assay; assay type: biochemical; details: for remaining activity at 10 µM: ATP 100 uM, Data 1, Data 2
T10 construct: purchased Reaction Biology (HotSpot contract assay)
T10 sequence (Q16288 32-839): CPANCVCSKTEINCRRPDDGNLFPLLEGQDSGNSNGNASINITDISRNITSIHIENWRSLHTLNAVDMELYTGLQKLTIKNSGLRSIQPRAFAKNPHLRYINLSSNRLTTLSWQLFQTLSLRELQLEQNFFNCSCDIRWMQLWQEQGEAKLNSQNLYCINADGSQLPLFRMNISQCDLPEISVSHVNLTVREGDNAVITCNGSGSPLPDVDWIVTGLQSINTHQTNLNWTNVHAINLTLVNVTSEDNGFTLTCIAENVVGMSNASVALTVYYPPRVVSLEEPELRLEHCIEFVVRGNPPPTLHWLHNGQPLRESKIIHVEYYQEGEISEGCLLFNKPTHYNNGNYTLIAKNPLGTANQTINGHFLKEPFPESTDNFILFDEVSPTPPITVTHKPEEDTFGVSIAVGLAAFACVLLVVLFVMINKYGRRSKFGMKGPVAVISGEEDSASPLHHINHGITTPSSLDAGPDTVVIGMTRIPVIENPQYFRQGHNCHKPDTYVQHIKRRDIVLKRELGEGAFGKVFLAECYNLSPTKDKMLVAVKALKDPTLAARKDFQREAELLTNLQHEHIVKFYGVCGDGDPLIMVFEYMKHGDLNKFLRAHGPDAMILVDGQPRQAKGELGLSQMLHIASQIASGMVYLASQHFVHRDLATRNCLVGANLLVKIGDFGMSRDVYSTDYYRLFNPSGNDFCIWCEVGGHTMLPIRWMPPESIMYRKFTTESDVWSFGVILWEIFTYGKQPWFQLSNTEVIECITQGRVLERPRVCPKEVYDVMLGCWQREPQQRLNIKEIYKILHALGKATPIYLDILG

[14] = biological target: T11, LCK (Homo sapiens, UniProt P06239); assay: HotSpot in vitro kinase radiometric assay; assay type: biochemical; details: for remaining activity at 10 µM: ATP 15 uM, Data 1, Data 2
T11 construct: purchased Reaction Biology (HotSpot contract assay)

[15] = biological target: T12, YES/YES1 (Homo sapiens, UniProt P07947); assay: HotSpot in vitro kinase radiometric assay; assay type: biochemical; details: for remaining activity at 10 µM: ATP 50 uM, Data 1, Data 2
T12 construct: purchased Reaction Biology (HotSpot contract assay)
T12 sequence (P07947 whole entry): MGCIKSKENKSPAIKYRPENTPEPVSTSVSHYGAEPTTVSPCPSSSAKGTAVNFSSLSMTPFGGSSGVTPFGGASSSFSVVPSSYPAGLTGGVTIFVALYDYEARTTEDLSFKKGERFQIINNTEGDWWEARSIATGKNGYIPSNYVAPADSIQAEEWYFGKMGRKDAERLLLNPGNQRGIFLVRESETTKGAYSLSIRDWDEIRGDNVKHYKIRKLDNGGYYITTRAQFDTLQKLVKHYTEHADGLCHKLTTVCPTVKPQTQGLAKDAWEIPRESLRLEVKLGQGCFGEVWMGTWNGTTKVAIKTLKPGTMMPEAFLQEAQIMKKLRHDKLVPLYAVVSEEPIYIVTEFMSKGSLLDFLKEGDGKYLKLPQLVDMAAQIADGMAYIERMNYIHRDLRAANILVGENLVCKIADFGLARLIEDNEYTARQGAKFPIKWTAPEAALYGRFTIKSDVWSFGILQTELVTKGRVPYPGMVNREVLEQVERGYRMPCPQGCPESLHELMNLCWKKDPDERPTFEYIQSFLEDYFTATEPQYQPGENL

[16] = system: 16-kinase panel; assay: 16-kinase panel screening, in vitro radiometric assay; assay type: biochemical, human; details: 10 μM
[17] = biological target: human 3-methyl-2-oxobutanoate dehydrogenase kinase (BCKDHK); design: method as in Besant et al., 2002; details: ref Besant et al., 2002; cited from earlier work
[18] = biological target: bacterial sensor kinase PhoQ; design: method as in Guarnieri et al., 2008; details: ref Guarnieri et al., 2008; cited from earlier work
[19] = biological target: human pyruvate dehydrogenase kinases; design: method as in Kato et al., 2007; details: ref Kato et al., 2007; cited from earlier work
[20] = biological target: ABL1 (Homo sapiens, UniProt P00519); assay: HotSpot in vitro kinase radiometric assay; assay type: biochemical; design: purchased Reaction Biology (HotSpot contract assay); details: for remaining activity at 10 µM: ATP 40 uM, Data 1, Data 2
ABL1 (Homo sapiens, UniProt P00519), sequence (P00519 whole entry): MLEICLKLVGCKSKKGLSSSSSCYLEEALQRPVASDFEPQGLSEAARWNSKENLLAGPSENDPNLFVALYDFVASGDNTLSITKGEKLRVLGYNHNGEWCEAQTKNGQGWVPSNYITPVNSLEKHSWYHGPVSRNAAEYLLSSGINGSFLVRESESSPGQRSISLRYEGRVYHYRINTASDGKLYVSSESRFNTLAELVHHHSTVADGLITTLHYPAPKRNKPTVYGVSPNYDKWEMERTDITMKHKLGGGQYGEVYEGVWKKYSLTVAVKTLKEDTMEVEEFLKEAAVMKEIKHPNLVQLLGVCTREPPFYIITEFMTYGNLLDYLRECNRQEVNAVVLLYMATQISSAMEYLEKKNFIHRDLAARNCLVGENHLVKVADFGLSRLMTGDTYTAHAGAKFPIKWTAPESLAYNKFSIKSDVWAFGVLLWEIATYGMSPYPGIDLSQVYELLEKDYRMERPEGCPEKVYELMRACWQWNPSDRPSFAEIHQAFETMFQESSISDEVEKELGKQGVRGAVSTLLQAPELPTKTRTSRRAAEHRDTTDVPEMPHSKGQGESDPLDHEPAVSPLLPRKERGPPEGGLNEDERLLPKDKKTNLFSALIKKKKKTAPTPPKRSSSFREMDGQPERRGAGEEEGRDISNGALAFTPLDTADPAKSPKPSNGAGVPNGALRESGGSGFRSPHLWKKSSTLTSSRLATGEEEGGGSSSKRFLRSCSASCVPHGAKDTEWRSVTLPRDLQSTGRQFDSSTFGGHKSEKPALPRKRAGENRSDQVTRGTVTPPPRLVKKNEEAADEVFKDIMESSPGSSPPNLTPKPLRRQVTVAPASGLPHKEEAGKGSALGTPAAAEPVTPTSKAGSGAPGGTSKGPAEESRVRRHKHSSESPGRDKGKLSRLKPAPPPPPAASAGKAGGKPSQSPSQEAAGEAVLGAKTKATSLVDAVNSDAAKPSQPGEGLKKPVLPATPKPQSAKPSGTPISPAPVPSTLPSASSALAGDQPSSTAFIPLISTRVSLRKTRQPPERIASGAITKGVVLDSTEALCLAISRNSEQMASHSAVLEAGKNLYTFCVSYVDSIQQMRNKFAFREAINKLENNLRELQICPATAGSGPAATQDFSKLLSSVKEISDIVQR

[21] = biological target: DDR1 (Homo sapiens, UniProt Q08345); assay: HotSpot in vitro kinase radiometric assay; assay type: biochemical; design: purchased Reaction Biology (HotSpot contract assay); details: for remaining activity at 10 µM: ATP 100 uM, Data 1, Data 2
[22] = biological target: T13, PDK2/PDHK2 (Homo sapiens, UniProt Q15119); assay: HotSpot in vitro kinase radiometric assay; assay type: biochemical; details: read-out: % inhibition at 10 uM: PDK2
T13 construct: purchased Reaction Biology (HotSpot contract assay)
Procedure, shortened: as §1

[23] = biological target: T14, PDK4/PDKH4 (Homo sapiens, UniProt Q16654); assay: HotSpot in vitro kinase radiometric assay; assay type: biochemical
T14 construct: purchased Reaction Biology (HotSpot contract assay)
T14 sequence (Q16654 whole entry): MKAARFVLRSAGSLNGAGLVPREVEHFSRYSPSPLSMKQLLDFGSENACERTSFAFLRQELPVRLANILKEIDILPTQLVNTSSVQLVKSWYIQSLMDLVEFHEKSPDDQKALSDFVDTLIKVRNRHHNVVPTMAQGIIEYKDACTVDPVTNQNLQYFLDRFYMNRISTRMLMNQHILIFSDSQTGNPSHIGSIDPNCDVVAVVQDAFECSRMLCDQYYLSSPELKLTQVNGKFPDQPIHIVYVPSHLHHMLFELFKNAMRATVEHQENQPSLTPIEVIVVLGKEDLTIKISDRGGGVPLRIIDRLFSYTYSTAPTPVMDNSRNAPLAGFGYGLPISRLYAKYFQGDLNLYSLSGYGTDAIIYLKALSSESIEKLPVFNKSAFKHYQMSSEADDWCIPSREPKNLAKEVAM
Procedure, shortened: as §1

[24] = system: HSP90AB1; design: method as in ChEMBL23 (accessed: 23/08/2018); details: average of reported values; ref ChEMBL23 (accessed: 23/08/2018); cited from earlier work
[25] = system: PIM1; design: method as in ChEMBL23 (accessed: 23/08/2018); details: average of reported values; ref ChEMBL23 (accessed: 23/08/2018); cited from earlier work
[26] = system: CDK2; design: method as in ChEMBL23 (accessed: 23/08/2018); details: average of reported values; ref ChEMBL23 (accessed: 23/08/2018); cited from earlier work
[27] = system: PRKD2; design: method as in ChEMBL23 (accessed: 23/08/2018); details: average of reported values; ref ChEMBL23 (accessed: 23/08/2018); cited from earlier work
[28] = system: PRKD3; design: method as in ChEMBL23 (accessed: 23/08/2018); details: average of reported values; ref ChEMBL23 (accessed: 23/08/2018); cited from earlier work
[29] = system: CSF1R; design: method as in ChEMBL23 (accessed: 23/08/2018); details: average of reported values; ref ChEMBL23 (accessed: 23/08/2018); cited from earlier work
[30] = system: RPS6KA3; design: method as in ChEMBL23 (accessed: 23/08/2018); details: average of reported values; ref ChEMBL23 (accessed: 23/08/2018); cited from earlier work
[31] = system: ROCK1; design: method as in ChEMBL23 (accessed: 23/08/2018); details: average of reported values; ref ChEMBL23 (accessed: 23/08/2018); cited from earlier work
[32] = system: ROCK2; design: method as in ChEMBL23 (accessed: 23/08/2018); details: average of reported values; ref ChEMBL23 (accessed: 23/08/2018); cited from earlier work

Nc1ncnc2c1ncn2[C@@H]1O[C@H](COP(=O)(O)OP(=O)(O)OP(=O)(O)O)[C@@H](O)[C@H]1O [ATP-Mg]
Kd [1]: 37 to 99 µM | Kd [2]: 423 µM | Kd [3]: > 1000 µM

C[C@@H]1C[C@H]2O[C@@H]2/C=C\C=C\C(=O)Cc2c(Cl)c(O)cc(O)c2C(=O)O1 [Radicicol]
remaining activity at 10 µM ([4]; ABL2/ARG, read-out: % Enzyme Activity (relative to DMSO controls)): 117% | remaining activity at 10 µM ([5]; BLK, read-out: % Enzyme Activity (relative to DMSO controls)): 104% | remaining activity at 10 µM ([6]; LYN B, read-out: % Enzyme Activity (relative to DMSO controls)): 114% | remaining activity at 10 µM ([7]; c-Src, read-out: % Enzyme Activity (relative to DMSO controls)): 96.8% | remaining activity at 10 µM ([8]; PEAK1, read-out: % Enzyme Activity (relative to DMSO controls)): 104% | remaining activity at 10 µM ([9]; FGR, read-out: % Enzyme Activity (relative to DMSO controls)): 112% | remaining activity at 10 µM ([10]; FYN, read-out: % Enzyme Activity (relative to DMSO controls)): 110% | remaining activity at 10 µM ([11]; PASK, read-out: % Enzyme Activity (relative to DMSO controls)): 94.4% | remaining activity at 10 µM ([12]; TRKA, read-out: % Enzyme Activity (relative to DMSO controls)): 106% | remaining activity at 10 µM ([13]; TRKC, read-out: % Enzyme Activity (relative to DMSO controls)): 98.6% | remaining activity at 10 µM ([14]; LCK, read-out: % Enzyme Activity (relative to DMSO controls)): 119% | remaining activity at 10 µM ([15]; YES/YES1, read-out: % Enzyme Activity (relative to DMSO controls)): 103% | activity against the 16-kinase panel [16]: inactive | IC50 [17]: 0.635 µM | Kd [18]: 715 µM | IC50 [19]: 230 to 400 µM | remaining activity at 10 µM ([20]; ABL1, read-out: % Enzyme Activity (relative to DMSO controls)): 106% | remaining activity at 10 µM ([21]; DDR1, read-out: % Enzyme Activity (relative to DMSO controls)): 105%

CCNC(=O)c1n[nH]c(-c2cc(Cl)c(O)cc2O)c1-c1ccc(OC)cc1 [VER-49009]
remaining activity at 10 µM ([4]; read-out: % Enzyme Activity (relative to DMSO controls), ABL2/ARG): 101% | inhibition at 10 µM ([4]; read-out: % inhibition at 10 uM: ABL2): 1 ± 3% | remaining activity at 10 µM ([5]; read-out: % Enzyme Activity (relative to DMSO controls), BLK): 70.1% | inhibition at 10 µM ([5]; read-out: % inhibition at 10 uM: BLK): 24 ± 8% | remaining activity at 10 µM ([6]; read-out: % Enzyme Activity (relative to DMSO controls), LYN B): 108% | inhibition at 10 µM ([6]; read-out: % inhibition at 10 uM: LYN B): -6 ± 3% | inhibition at 10 µM [22]: 95 ± 5% | remaining activity at 10 µM ([23]; read-out: % Enzyme Activity (relative to DMSO controls), PDK4/PDKH4, 10uM, ATP 30 uM, Data 1, Data 2): 15.1% | inhibition at 10 µM ([23]; read-out: % inhibition at 10 uM: PDK4): 86 ± 1% | remaining activity at 10 µM ([7]; read-out: % Enzyme Activity (relative to DMSO controls), c-Src): 65.9% | inhibition at 10 µM ([7]; read-out: % inhibition at 10 uM: SRC): 35 ± 1% | remaining activity at 10 µM ([8]; read-out: % Enzyme Activity (relative to DMSO controls), PEAK1): 75.5% | inhibition at 10 µM ([8]; read-out: % inhibition at 10 uM: PEAK1): 24% | remaining activity at 10 µM ([9]; read-out: % Enzyme Activity (relative to DMSO controls), FGR): 99% | inhibition at 10 µM ([9]; read-out: % inhibition at 10 uM: FGR): 1% | remaining activity at 10 µM ([10]; read-out: % Enzyme Activity (relative to DMSO controls), FYN): 89.2% | inhibition at 10 µM ([10]; read-out: % inhibition at 10 uM: FYN): 13 ± 3% | remaining activity at 10 µM ([11]; read-out: % Enzyme Activity (relative to DMSO controls), PASK): 98% | inhibition at 10 µM ([11]; read-out: % inhibition at 10 uM: PASK): 2% | remaining activity at 10 µM ([12]; read-out: % Enzyme Activity (relative to DMSO controls), TRKA): 20.6% | inhibition at 10 µM ([12]; read-out: % inhibition at 10 uM: TRKA): 79 ± 1% | remaining activity at 10 µM ([13]; read-out: % Enzyme Activity (relative to DMSO controls), TRKC): 68.4% | inhibition at 10 µM ([13]; read-out: % inhibition at 10 uM: TRKC): 28 ± 5% | remaining activity at 10 µM ([14]; read-out: % Enzyme Activity (relative to DMSO controls), LCK): 72.8% | inhibition at 10 µM ([14]; read-out: % inhibition at 10 uM: LCK): 25 ± 3% | remaining activity at 10 µM ([15]; read-out: % Enzyme Activity (relative to DMSO controls), YES/YES1): 77.2% | inhibition at 10 µM ([15]; read-out: % inhibition at 10 uM: YES): 24 ± 1% | pActivity, HSP90AB1 [24]: 7.6 | pActivity, PIM1 [25]: 5.6 | pActivity, CDK2 [26]: 5.2 | pActivity, PRKD2 [27]: 5.8 | pActivity, PRKD3 [28]: 5.8 | pActivity, CSF1R [29]: 5.9 | pActivity, RPS6KA3 [30]: 5.5 | pActivity, ROCK1 [31]: 5.4 | pActivity, ROCK2 [32]: 5.6 | remaining activity at 10 µM ([20]; read-out: % Enzyme Activity (relative to DMSO controls), ABL1): 80.2% | inhibition at 10 µM ([20]; read-out: % inhibition at 10 uM: ABL1): 14 ± 8% | remaining activity at 10 µM ([21]; read-out: % Enzyme Activity (relative to DMSO controls), DDR1): 65.8% | inhibition at 10 µM ([21]; read-out: % inhibition at 10 uM: DDR1): 29 ± 8%
